Measurements: ChEMBL document CHEMBL1201862, “PubChem BioAssay data set” (2004)
Each block holds one molecule with its values, some of them ahead of it. Active and inactive are the calls of the source.

Columns and labels:
[1] = cytotoxicity in HPDE-C7 cells, cell-based, fluorescence, HTS (AID 430); assay type: functional; conditions: Homo sapiens
[2] = growth suppression of PTEN-null colon cells, dose response, cell-based, HCT116 PTEN knockout (AID 1047); assay type: functional;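 further: HCT116 colon tumor cells with PTEN knocked out; cells exposed to compound for 60 hours before readout; potency for loss of cell viability measured by luminescence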
[3] = biological target: Dual specificity tyrosine-phosphorylation-regulated kinase 1A (Rattus norvegicus, UniProt Q63470); assay type: biochemical, Homo sapiens
[4] = biological target: Intestinal-type alkaline phosphatase (Mus musculus, UniProt P24822); assay: mouse intestinal alkaline phosphatase activators, dose response, biochemical, luminescence, uHTS hits (AID 488783); assay type: functional
Intestinal-type alkaline phosphatase, sequence (P24822 whole entry): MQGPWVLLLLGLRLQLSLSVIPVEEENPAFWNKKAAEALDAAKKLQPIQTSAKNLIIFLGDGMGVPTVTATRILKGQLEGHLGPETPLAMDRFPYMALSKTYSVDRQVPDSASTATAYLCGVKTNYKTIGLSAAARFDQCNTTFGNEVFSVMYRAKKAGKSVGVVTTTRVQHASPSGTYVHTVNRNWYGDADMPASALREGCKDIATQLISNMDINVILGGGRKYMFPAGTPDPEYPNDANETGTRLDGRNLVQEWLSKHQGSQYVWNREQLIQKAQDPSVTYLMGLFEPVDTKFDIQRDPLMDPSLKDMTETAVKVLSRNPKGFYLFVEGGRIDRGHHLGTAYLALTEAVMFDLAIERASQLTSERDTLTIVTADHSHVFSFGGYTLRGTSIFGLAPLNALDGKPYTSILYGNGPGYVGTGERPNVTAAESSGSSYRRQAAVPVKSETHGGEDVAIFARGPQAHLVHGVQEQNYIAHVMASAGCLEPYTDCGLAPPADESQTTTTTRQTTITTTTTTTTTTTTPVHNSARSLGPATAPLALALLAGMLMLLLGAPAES

Procathepsin L = Procathepsin L (Homo sapiens, UniProt P07711)
[5] = MITF Measured in Cell-Based System Using Plate Reader - 2084-01_Inhibitor_Dose_DryPowder_Activity_Set7.; assay type: functional
[6] = A375 melanoma cell cytotoxicity, dose response, counter-screen for MITF inhibitor project, CellTiter-Glo luminescence, dry powder, set 2 (AID 624489); assay type: functional, cell-based; conditions: A-375;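 further: actives are compounds lowering A375 viability meaning general cytotoxicity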
Orexin receptor type 2 = biological target: T1, Orexin receptor type 2 (Homo sapiens, UniProt O43614); assay: Counterscreen assay for antagonists of the orexin 1 receptor (OX1R; HCRTR1): Homogeneous Time Resolved Fluorescence (HTRF)-based cell-based dose response assay for antagonists of the orexin 2 receptor (OX2R; HCRTR2), run by assay provider.; assay type: functional
T1 sequence (O43614 whole entry): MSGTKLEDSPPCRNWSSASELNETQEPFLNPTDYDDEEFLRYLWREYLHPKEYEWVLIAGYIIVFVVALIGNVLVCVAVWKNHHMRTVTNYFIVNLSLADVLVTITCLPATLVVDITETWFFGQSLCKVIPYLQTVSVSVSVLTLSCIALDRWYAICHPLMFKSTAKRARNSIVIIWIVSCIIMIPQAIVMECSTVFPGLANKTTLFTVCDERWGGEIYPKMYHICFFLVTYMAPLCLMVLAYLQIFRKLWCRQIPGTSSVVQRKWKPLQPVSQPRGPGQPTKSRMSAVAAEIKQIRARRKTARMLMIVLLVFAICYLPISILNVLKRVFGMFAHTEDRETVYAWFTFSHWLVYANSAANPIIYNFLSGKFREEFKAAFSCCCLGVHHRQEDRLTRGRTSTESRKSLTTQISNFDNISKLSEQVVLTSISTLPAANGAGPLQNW

CHO-K1 = assay: Counterscreen for antagonists of the orexin 1 receptor (OX1R; HCRTR1): Homogeneous time resolved fluorescence (HTRF)-based cell-based dose response assay to identify antagonists of the parental CHO-K1 cell line. [Related pubchem assays (depositor defined):AID434989, AID435008, AID463079, AID485270, AID492963, AID492964, AID492965, AID493232, AID504699, AID504701]; assay type: functional; conditions: Cricetulus griseus;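 further: potency for inhibition of ATP-stimulated IP1 production as antagonists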
[7] = biological target: T2, Orexin/Hypocretin receptor type 1 (Homo sapiens, UniProt O43613); assay: Fluorescence-based cell-based high throughput dose response assay for antagonists of the orexin 1 receptor (OX1R; HCRTR1). [Related pubchem assays (depositor defined):AID434989, AID435008, AID463079, AID485270, AID492963, AID492964, AID492965, AID493232, AID504717, AID504718]; assay type: functional
T2 sequence (O43613 whole entry): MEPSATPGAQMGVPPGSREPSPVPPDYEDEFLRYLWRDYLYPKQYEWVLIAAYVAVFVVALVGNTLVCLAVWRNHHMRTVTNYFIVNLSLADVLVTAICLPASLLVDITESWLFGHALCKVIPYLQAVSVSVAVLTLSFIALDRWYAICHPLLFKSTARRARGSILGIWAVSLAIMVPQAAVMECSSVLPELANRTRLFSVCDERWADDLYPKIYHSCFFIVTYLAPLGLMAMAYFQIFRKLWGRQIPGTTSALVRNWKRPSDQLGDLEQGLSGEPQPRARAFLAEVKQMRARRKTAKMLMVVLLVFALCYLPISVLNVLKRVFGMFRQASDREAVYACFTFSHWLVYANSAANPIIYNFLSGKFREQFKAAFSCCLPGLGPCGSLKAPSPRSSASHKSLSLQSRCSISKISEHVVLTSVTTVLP

[8] = biological target: MAP/microtubule affinity-regulating kinase 3 (Homo sapiens, UniProt P27448); assay type: functional;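 further: MARK3 affinity measured as one member of a kinome panel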
[9] = biological target: Interleukin-1 receptor-associated kinase 4 (Homo sapiens, UniProt Q9NWZ3); assay type: functional
[10] = biological target: Serine/threonine-protein kinase DCLK1 (Homo sapiens, UniProt O15075); assay type: functional;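 further: affinity for DCLK1 (listed as DCAMKL1) measured as one member of a kinome-wide kinase profiling panel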
Serine/threonine-protein kinase DCLK1, sequence (O15075 whole entry): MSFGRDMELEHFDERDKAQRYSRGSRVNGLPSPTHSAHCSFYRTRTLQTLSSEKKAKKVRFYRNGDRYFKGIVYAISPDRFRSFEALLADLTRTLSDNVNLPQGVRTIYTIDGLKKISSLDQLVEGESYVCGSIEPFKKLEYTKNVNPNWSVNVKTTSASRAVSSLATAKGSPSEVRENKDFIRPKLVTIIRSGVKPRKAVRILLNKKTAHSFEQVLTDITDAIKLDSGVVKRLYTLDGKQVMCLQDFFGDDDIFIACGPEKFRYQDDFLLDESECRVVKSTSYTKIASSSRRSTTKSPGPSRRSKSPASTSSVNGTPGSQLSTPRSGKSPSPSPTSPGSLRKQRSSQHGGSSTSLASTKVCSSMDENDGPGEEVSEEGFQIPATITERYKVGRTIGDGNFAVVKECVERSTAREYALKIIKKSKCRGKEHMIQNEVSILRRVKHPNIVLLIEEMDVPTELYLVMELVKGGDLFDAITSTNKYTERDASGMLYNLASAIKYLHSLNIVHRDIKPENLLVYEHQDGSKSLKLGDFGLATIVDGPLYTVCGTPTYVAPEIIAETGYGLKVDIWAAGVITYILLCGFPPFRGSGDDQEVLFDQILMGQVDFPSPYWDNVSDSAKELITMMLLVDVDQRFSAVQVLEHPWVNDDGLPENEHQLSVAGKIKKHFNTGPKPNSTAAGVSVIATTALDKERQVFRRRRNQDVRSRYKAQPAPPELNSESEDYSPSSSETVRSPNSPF

[11] = biological target: Insulin-like growth factor 1 receptor (Homo sapiens, UniProt P08069); assay: Navigating the Kinome. Panel member name: IGF1R; assay type: functional
Insulin-like growth factor 1 receptor, sequence (P08069 31-736 limits assumed): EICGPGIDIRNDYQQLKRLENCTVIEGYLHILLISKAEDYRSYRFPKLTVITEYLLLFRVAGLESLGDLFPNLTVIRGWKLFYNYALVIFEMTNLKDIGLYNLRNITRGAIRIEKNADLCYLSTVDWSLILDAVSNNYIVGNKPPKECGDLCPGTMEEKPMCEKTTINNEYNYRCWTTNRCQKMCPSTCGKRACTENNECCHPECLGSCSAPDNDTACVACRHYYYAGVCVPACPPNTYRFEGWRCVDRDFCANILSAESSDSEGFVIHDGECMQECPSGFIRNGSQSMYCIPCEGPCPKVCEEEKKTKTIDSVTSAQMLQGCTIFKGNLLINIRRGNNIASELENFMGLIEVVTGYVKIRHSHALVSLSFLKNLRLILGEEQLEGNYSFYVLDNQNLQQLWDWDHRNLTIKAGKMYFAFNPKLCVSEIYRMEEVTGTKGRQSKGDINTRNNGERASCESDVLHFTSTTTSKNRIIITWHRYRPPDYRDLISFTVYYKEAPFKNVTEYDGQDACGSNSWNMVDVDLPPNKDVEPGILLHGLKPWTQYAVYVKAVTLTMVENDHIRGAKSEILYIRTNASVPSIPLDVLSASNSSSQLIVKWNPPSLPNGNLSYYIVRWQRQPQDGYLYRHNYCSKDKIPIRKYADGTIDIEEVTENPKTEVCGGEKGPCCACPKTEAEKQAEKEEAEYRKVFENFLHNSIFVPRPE
Insulin-like growth factor 1 receptor, sequence (P08069 741-1367 limits assumed): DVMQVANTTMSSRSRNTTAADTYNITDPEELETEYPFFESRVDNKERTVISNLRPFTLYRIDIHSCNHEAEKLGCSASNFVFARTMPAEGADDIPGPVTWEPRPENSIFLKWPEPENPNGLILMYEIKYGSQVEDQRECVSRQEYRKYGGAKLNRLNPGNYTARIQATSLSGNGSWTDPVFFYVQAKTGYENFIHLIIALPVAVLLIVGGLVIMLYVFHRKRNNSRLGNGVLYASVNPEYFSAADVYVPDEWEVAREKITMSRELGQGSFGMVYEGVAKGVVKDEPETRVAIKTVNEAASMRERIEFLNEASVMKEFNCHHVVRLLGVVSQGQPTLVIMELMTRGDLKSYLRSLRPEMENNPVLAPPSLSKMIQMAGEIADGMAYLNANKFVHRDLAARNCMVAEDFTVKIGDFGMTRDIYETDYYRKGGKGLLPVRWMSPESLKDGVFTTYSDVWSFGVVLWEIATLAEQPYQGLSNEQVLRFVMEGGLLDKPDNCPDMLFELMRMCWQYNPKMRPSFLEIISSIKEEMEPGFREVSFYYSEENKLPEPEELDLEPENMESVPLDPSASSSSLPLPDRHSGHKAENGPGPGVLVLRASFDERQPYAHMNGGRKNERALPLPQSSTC

[12] = biological target: MAP kinase-activated protein kinase 5 (Homo sapiens, UniProt Q8IW41); assay type: functional;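 further: measured as one member of a kinome panel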
[13] = biological target: Macrophage-stimulating protein receptor (Homo sapiens, UniProt Q04912); assay: Navigating the Kinome. Panel member name: MST1R; assay type: functional
[14] = biological target: Mitogen-activated protein kinase 14 (Homo sapiens, UniProt Q16539); assay type: functional;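 further: part of a kinome-wide panel, MAPK14 entry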
[15] = biological target: Mitogen-activated protein kinase 1 (Homo sapiens, UniProt P28482); assay type: functional
[16] = biological target: STE20-like serine/threonine-protein kinase (Homo sapiens, UniProt Q9H2G2); assay type: functional
[17] = biological target: Dual specificity tyrosine-phosphorylation-regulated kinase 3 (Homo sapiens, UniProt O43781); assay type: functional;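 further: measured as one member of a broad kinase panel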
Dual specificity tyrosine-phosphorylation-regulated kinase 3, sequence (O43781 whole entry): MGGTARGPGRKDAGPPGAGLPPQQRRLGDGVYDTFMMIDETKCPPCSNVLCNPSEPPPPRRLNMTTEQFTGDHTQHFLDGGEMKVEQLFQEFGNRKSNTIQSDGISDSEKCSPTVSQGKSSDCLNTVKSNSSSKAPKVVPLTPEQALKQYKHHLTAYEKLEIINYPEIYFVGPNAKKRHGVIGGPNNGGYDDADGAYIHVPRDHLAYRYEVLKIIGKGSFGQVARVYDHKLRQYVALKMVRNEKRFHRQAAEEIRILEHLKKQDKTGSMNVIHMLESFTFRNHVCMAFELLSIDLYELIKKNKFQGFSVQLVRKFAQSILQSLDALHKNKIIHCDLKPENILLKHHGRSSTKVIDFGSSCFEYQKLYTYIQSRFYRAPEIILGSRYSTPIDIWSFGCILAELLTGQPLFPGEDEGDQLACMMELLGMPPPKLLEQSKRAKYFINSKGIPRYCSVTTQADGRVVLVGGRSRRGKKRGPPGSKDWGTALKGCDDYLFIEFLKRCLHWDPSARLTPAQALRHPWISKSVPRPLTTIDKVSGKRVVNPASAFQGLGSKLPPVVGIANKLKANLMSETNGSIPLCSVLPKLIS

[18] = biological target: MAP kinase-interacting serine/threonine-protein kinase 2 (Homo sapiens, UniProt Q9HBH9); assay type: functional
[19] = biological target: Vascular endothelial growth factor receptor 1 (Homo sapiens, UniProt P17948); assay type: functional;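 further: measured within a kinome-wide profiling panel, FLT1 as the panel member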
[20] = biological target: Serine/threonine-protein kinase D2 (Homo sapiens, UniProt Q9BZL6); assay type: functional;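 further: measured against PRKD2 as one member of a kinome-wide kinase profiling panel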
Serine/threonine-protein kinase D2, sequence (Q9BZL6 whole entry): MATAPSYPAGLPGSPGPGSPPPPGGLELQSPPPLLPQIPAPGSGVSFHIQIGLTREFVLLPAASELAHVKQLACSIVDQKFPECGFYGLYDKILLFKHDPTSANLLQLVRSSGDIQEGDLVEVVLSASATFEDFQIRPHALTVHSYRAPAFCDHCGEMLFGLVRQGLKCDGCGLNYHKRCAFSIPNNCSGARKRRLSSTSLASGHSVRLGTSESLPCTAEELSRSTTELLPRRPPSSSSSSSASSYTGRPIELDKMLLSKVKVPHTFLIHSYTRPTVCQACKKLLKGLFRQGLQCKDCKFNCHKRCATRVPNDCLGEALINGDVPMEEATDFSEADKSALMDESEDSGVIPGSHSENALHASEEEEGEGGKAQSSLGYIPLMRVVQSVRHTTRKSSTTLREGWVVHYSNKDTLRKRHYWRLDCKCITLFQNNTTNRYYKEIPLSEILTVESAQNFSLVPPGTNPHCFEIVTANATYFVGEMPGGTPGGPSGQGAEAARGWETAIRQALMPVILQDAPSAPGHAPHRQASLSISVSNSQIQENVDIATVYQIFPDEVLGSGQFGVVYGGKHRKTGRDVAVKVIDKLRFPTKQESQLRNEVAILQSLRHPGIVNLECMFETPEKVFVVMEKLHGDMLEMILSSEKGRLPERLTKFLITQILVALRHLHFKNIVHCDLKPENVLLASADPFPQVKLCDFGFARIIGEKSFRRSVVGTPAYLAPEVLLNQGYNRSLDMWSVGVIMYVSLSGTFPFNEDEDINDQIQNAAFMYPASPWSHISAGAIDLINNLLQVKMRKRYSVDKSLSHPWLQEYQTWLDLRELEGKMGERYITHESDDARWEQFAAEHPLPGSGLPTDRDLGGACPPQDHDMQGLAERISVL

[21] = biological target: Serine/threonine-protein kinase TBK1 (Homo sapiens, UniProt Q9UHD2); assay: Navigating the Kinome. Panel member name: TBK1; assay type: functional
Serine/threonine-protein kinase TBK1, sequence (Q9UHD2 whole entry): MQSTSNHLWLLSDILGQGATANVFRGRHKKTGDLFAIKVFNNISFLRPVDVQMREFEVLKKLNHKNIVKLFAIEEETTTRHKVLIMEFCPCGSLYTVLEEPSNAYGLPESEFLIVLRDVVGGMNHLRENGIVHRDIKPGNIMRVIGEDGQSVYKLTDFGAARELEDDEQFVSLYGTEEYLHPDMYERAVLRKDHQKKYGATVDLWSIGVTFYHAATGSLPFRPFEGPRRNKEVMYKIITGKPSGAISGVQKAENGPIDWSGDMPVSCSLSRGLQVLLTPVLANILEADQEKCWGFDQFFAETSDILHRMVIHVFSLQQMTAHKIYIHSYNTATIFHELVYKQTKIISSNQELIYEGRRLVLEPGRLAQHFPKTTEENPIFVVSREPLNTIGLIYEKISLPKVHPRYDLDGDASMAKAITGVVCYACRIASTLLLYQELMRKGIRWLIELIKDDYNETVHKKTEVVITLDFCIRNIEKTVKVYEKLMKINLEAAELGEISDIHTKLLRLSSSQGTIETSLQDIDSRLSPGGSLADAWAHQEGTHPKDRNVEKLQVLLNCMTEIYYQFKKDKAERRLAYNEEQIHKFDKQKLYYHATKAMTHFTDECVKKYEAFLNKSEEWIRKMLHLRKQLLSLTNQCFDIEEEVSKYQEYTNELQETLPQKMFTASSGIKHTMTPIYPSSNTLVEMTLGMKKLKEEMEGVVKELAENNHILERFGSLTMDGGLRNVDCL

[22] = biological target: Calcium/calmodulin-dependent protein kinase type II subunit alpha (Homo sapiens, UniProt Q9UQM7); assay: Navigating the Kinome. Panel member name: CAMK2A; assay type: functional
[23] = biological target: Serine/threonine-protein kinase PAK 4 (Homo sapiens, UniProt O96013); assay type: functional;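 further: value obtained within a kinome profiling panel in which PAK4 was one of the panel members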
[24] = biological target: Tyrosine-protein kinase JAK2 (Homo sapiens, UniProt O60674); assay type: functional;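 further: JAK2 tested as one member of a kinase panel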

SMILES: CCOC(=O)C(C(=O)OCC)c1cc(Br)c2noc3c2c1C(=O)c1ccccc1-3
EC50 [1]: 3.03 µM (active)
EC50 [2]: 10.2 µM (active)

SMILES: CS(=O)(=O)c1ccc2c(c1)SC1=NC(=O)/C(=C/c3ccc(O)c(O)c3)C(=N)N12
AC50 [3]: 2.71 µM (active)
EC50 [4]: 6.35 µM (active)
IC50 (Procathepsin L): > 59.6 µM (not active)

SMILES: C=CCNC1=C(Cl)C(=O)c2ccccc2C1=O
AC50 [5]: 0.735 µM (active)
AC50 [6]: > 70 µM (inactive)

SMILES: CN(C)c1ccc(-c2nnc(-c3cccs3)o2)cc1
IC50 (Orexin receptor type 2): > 50 µM (inactive)
IC50 (CHO-K1): > 66.2 µM (inactive)
IC50 [7]: > 49.7 µM (inactive)

Ki [8]: 0.0631 µM (active)
Ki [9]: 2.51 µM (active)
Ki [10]: 5.01 µM (active)
Ki [11]: > 2 µM (inactive)
Ki [12]: 1.26 µM (active)
Ki [13]: 0.794 µM (active)
Ki [14]: > 3.98 µM (inactive)
Ki [15]: 0.1 µM (active)
Ki [16]: 2 µM (active)
Ki [17]: 0.631 µM (active)
Ki [18]: 3.16 µM (active)
Ki [19]: 0.2 µM (active)
Ki [20]: 2 µM (active)
Ki [21]: 0.0251 µM (active)
Ki [22]: 0.398 µM (active)
Ki [23]: 0.501 µM (active)
Ki [24]: 0.126 µM (active)
SMILES: COc1ccc(C(=O)Nc2n[nH]c3ccc(-c4cn(Cc5ccccc5)nn4)cc23)cc1OC
